Reference: patent US6953578B2, “Materials and methods for detection and treatment of immune system dysfunctions” (University of Florida Research Foundation, Inc., priority 1996, dated 2005)
Marks after values point to notes of the source that are not given here.

How the values were obtained:
[1] = tested on: NOD mice; assay: Incidence of diabetes in NOD mice treated through drinking water; assay type: in vivo, mouse
Method: Blocking the activity of PGS-2 with drugs that reduce PG production can be used to prevent or slow the development of IDD disease. When NOD mice with established, active autoimmune disease are treated through their drinking water with a combination of drugs, including a PGS-1/PGS-2 inhibitor, low dose indomethacin (3 μg/ml), in conjunction with an inducible nitric oxide synthase (iNOS) inhibitor, aminoguanidine, which potentiates the effects of indomethacin, the incidence of diabetes in NOD mice drops by 42% in comparison to control animals and animals treated with either low dose indomethacin or aminoguanidine alone.
Treatment of NOD mice at a time when autoimmunity is in its final stages with high doses (15 μg/ml) of indomethacin alone reduces the incidence of diabetes from 77% to 22%.

[2] = tested on: monocytes; assay: TNFα and IL-1β in supernatants of monocytes cultured 24 hours; assay type: cell-based, human; conditions: monocytes cultured in vitro 24 hours
Method: The expression of PGS-2 can be induced by several factors including cytokines produced by monocytes such as TNFα and IL-1β. To evaluate the possibility that monocytes of pre-IDD subjects produce large quantities of IL-1 and TNFα which induces PGS-2, the levels of these cytokines were measured in supernatants of monocytes cultured in vitro for 24 hours from pre-IDD and healthy controls. […] The lower levels of these cytokines is consistent with the constitutive production of prostaglandins which suppress the production of both TNFα and IL-1β.

[3] = tested on: PGS-2 mRNA; assay: PGS-2 mRNA expression in monocytes by RT-PCR; assay type: cell-based, human
Method: RT-PCR detection of PGS-2 mRNA in human monocytes. Human peripheral blood is collected in sterile green top 10 ml tubes. Assays are preferably performed with 5 ml or more of blood. The blood is then centrifuged on a ficoll gradient for 30 minutes at 1500 rpm. Monocytes are isolated to >80% purity by adherence for 2 hours to a plastic culture surface. Cells are then cultured overnight in RMPI-1640 plus endotoxin-free fetal calf sera. The cells are harvested after 16 hours of culture by cold Ca^++/Mg^++-free PBS, the cells are counted, and viability is assessed. Monocytes cultured in 10 μg/ml LPS serve as a positive control for each sample tested. The poly mRNA is then harvested from a standard 10^5 monocytes using a kit (Quiagen). The mRNA is then reverse transcribed in a standard reaction mixture. The cDNA is then amplified by PGS-2-specific primers designed by our laboratory using a standard […] for 45 cycles. The PCR product is then run out on agarose gels with known standards and the size confirmed. β-actin is used as an internal control in these reactions. The identity of RT-PCR products were confirmed by size and Southern blotting using a PGS-2-specific labeled internal probe.
Monocytes were examined from ICA+ humans with a high risk of developing IDD, individuals with established SLE and autoimmune thyroid disease, and healthy controls. A portion of the pre-diabetic ICA+ individuals examined are enrolled in an IDD trial where they receive daily subcutaneous insulin as a preventative therapy. Monocytes of humans without autoimmune disease infrequently express PGS-2 mRNA (12%), whereas monocytes from subjects who are at high risk for the development of IDD express PGS-2 at a highly significant frequency (84%, p<0.0001).

[4] = tested on: monocytes; assay: PGE2 production by monocytes, specific ELISA; assay type: cell-based, human
From the text: In addition to the expression of PGS-2, the production of PGE2 by monocytes from these same control and autoimmune individuals was examined.

[5] = tested on: monocytes; assay: Monokine production in monocyte culture supernatants with and without NS-398; assay type: cell-based, human; conditions: monocytes of healthy controls and pre-diabetic population
From the text: The monocyte production of the monokines IL-1β, TNFα, IL-1RA, and IL-10 in culture supernatants from healthy controls and the pre-diabetic population in the presence and absence of the PGS-2-specific inhibitor, NS-398, have been evaluated. […] It has also been determined that, despite enhanced levels of PGS-2 and PGE2 in diabetic and pre-diabetic individuals, there is no corresponding increase in IL-10. […] Therefore, a further aspect of the subject invention is a method for detecting evidence of autoimmune disease, particularly diabetes, which comprises evaluating monocytes to determine if those monocytes have a reduced response to IL-10 with regard to PGS-2 expression. Such reduced response would be evidence of disease. In accordance with these findings, compounds that inhibit prostaglandin production can be used to modulate the production of anti-inflammatory monokines in order to limit the immune response. The spontaneous expression of PGS-2 and the production of PGE2 by pre-diabetic monocytes may influence their function, limiting their ability to produce monokines that would have a potent effect on limiting the autoimmune response to the β-cells of the islet and therefore would promote the progression to diabetes.

[6] = tested on: NOD mice; assay: PGE2 production by monocytes of NOD mice after IL-10 administration; assay type: in vivo, mouse; conditions: administration of IL-10

COc1ccc2c(c1)c(CC(=O)O)c(C)n2C(=O)c1ccc(Cl)cc1 [indomethacin]
development of IDD ([1]; NOD mice treated at an early stage of disease): effectively blocks the development of IDD | incidence of diabetes ([1]; NOD mice, autoimmunity in final stages, indomethacin alone 15 μg/ml, untreated 77%): 22%

insulin
TNFα and IL-1β levels, insulin-treated versus untreated pre-IDD [2]: no significant differences | % PGS-2 + ([3]; ICA+ pre-IDD subjects, insulin-treated, Table 6): 73.6** % | % Positive (PGS-2 mRNA) ([3]; ICA+ subjects on daily subcutaneous preventative insulin, Table 2): 71% | PGS-2 mRNA or protein expression ([3]; preventative insulin therapy in ICA+ subjects): does not appear to affect | PGE2 ([4]; monocytes of ICA+/PGS-2+ subjects on insulin therapy): 5805 ± 1544 pg/mL

CS(=O)(=O)Nc1ccc([N+](=O)[O-])cc1OC1CCCCC1 [NS-398]
production of IL-1RA [5]: promotes the production | production of IL-10 [5]: promotes the production | production of PGE2 ([4]; monocytes of control and autoimmune individuals, FIG. 1): completely blocked | PGS-2 production in vitro ([4]; monocytes of individuals at high risk for IDD): effectively blocks all PGS-2 production

B1: IL-10: monokine that tends to downregulate inflammation and immune responses (protein, UniProt P22301 19-178, looked up)
Interleukin-10: SPGQGTQSENSCTHFPGNLPNMLRDLRDAFSRVKTFFQMKDQLDNLLLKESLLEDFKGYLGCQALSEMIQFYLEEVMPQAENQDPDIKAHVNSLGENLKTLRLRLRRCHRFLPCENKSKAVEQVKNAFNKLQEKGIYKAMSEFDIFINYIEAYMTMKIRN
PGE2 production by monocytes [6]: does not inhibit PGE2 production
